Assay results: PubChem BioAssay AID212 (DTP/NCI, 2004)
“And” between values parts separate entries of the source, which are not always exact repeats. Equal values may be shown once. Inconclusive results are not listed.

System: BDF1 mice, colon carcinoma 38 sc, T/C %
Test: NCI In Vivo Anticancer Drug Screen. Data for tumor model Colon Carcinoma 38 (subcutaneous) in B6D2F1 (BDF1) mice
Description: The antitumor activity of compounds was measured in mice bearing transplantable tumors. Survival or tumor size were measured and the results are expressed as the measurement made in the treated group (T) divided by the measurement made in the vehicle treated control group (C). The tumor model used in this assay is Colon Carcinoma 38 (subcutaneous) in B6D2F1 (BDF1) mice

[1] = endpoint: median tumor weight (est.), dose: 12.5 mg/kg/injection, schedule: Q07DX002 (ip), vehicle: saline with Tween-80, higher = larger tumour
[2] = endpoint: median tumor weight (est.), dose: 25.0 mg/kg/injection, schedule: Q07DX002 (ip), vehicle: saline with Tween-80, higher = larger tumour
[3] = endpoint: median tumor weight (est.), dose: 50.0 mg/kg/injection, schedule: Q07DX002 (ip), vehicle: saline with Tween-80, higher = larger tumour
[4] = endpoint: median tumor weight (est.), dose: 400.0 mg/kg/injection, schedule: Q07DX002 (ip), vehicle: saline with Tween-80, higher = larger tumour
[5] = endpoint: median tumor weight (est.), dose: 200.0 mg/kg/injection, schedule: Q07DX002 (ip), vehicle: saline, higher = larger tumour

COC1C(CO)OC(n2cnc3c(=S)nc(N)[nH]c32)C1O (centres undefined)
T/C (endpoint: median tumor weight (est.), dose: 12.5 mg/kg/injection, schedule: Q07DX002 (ip), vehicle: Klucel (hydroxypropylcellulose) (HPC), higher = larger tumour): 98 % of control
T/C (endpoint: median tumor weight (est.), dose: 25.0 mg/kg/injection, schedule: Q07DX002 (ip), vehicle: Klucel (hydroxypropylcellulose) (HPC), higher = larger tumour): 74 % of control
T/C (endpoint: median tumor weight (est.), dose: 50.0 mg/kg/injection, schedule: Q07DX002 (ip), vehicle: Klucel (hydroxypropylcellulose) (HPC), higher = larger tumour): 44 % of control
T/C (endpoint: median tumor weight (est.), dose: 100.0 mg/kg/injection, schedule: Q07DX002 (ip), vehicle: Klucel (hydroxypropylcellulose) (HPC), higher = larger tumour): 118 % of control
T/C (endpoint: median tumor weight (est.), dose: 200.0 mg/kg/injection, schedule: Q07DX002 (ip), vehicle: Klucel (hydroxypropylcellulose) (HPC), higher = larger tumour): 69 % of control
T/C (endpoint: median tumor weight (est.), dose: 400.0 mg/kg/injection, schedule: Q07DX002 (ip), vehicle: Klucel (hydroxypropylcellulose) (HPC), higher = larger tumour): 44 % of control

O=c1c(O)c(-c2cc(O)c(O)c(O)c2)oc2cc(O)cc(O)c12
T/C (endpoint: median tumor weight (est.), dose: 6.25 mg/kg/injection, schedule: Q07DX002 (ip), vehicle: other, higher = larger tumour): 75 % of control
T/C (endpoint: median tumor weight (est.), dose: 12.5 mg/kg/injection, schedule: Q07DX002 (ip), vehicle: other, higher = larger tumour): 87 % of control
T/C [1]: 152 % of control and 172 % of control
T/C (endpoint: median tumor weight (est.), dose: 25.0 mg/kg/injection, schedule: Q07DX002 (ip), vehicle: other, higher = larger tumour): 73 % of control
T/C [2]: 113 % of control and 107 % of control
T/C (endpoint: median tumor weight (est.), dose: 50.0 mg/kg/injection, schedule: Q07DX002 (ip), vehicle: other, higher = larger tumour): 96 % of control
T/C [3]: 120 % of control and 107 % of control
T/C (endpoint: median tumor weight (est.), dose: 100.0 mg/kg/injection, schedule: Q07DX002 (ip), vehicle: other, higher = larger tumour): 65 % of control
T/C (endpoint: median tumor weight (est.), dose: 100.0 mg/kg/injection, schedule: Q07DX002 (ip), vehicle: saline with Tween-80, higher = larger tumour): 161 % of control and 214 % of control
T/C (endpoint: median tumor weight (est.), dose: 200.0 mg/kg/injection, schedule: Q07DX002 (ip), vehicle: other, higher = larger tumour): 98 % of control
T/C (endpoint: median tumor weight (est.), dose: 200.0 mg/kg/injection, schedule: Q07DX002 (ip), vehicle: saline with Tween-80, higher = larger tumour): 187 % of control
T/C (endpoint: median tumor weight (est.), dose: 400.0 mg/kg/injection, schedule: Q07DX002 (ip), vehicle: other, higher = larger tumour): 77 % of control
T/C [4]: 116 % of control and 100 % of control

CN(Cc1cnc2nc(N)nc(N)c2n1)c1ccc(C(=O)N[C@@H](CCC(=O)O)C(=O)O)cc1
T/C (endpoint: median tumor weight (est.), dose: 1.25 mg/kg/injection, schedule: Q07DX002 (ip), vehicle: sodium bicarbonate, higher = larger tumour): 105 % of control
T/C (endpoint: median tumor weight (est.), dose: 2.5 mg/kg/injection, schedule: Q07DX002 (ip), vehicle: sodium bicarbonate, higher = larger tumour): 167 % of control and 170 % of control
T/C (endpoint: median tumor weight (est.), dose: 5.0 mg/kg/injection, schedule: Q07DX002 (ip), vehicle: sodium bicarbonate, higher = larger tumour): 122 % of control
T/C (endpoint: median tumor weight (est.), dose: 10.0 mg/kg/injection, schedule: Q07DX002 (ip), vehicle: sodium bicarbonate, higher = larger tumour): 111 % of control
T/C (endpoint: median tumor weight (est.), dose: 20.0 mg/kg/injection, schedule: Q07DX002 (ip), vehicle: sodium bicarbonate, higher = larger tumour): 115 % of control and 117 % of control

CC1(C)N=C(N)N=C(N)N1c1ccc(CCCCc2ccc(S(=O)(=O)F)cc2Cl)c(Cl)c1
T/C (endpoint: median survival time, dose: 35.0 mg/kg/injection, schedule: Q01DX013 (ip), vehicle: saline with Tween-80, higher = longer survival): 117 % of control
T/C (endpoint: median survival time, dose: 92.0 mg/kg/injection, schedule: Q01DX013 (ip), vehicle: saline with Tween-80, higher = longer survival): 157 % of control
T/C (endpoint: median tumor weight (est.), dose: 6.25 mg/kg/injection, schedule: Q07DX002 (ip), vehicle: saline, higher = larger tumour): 44 % of control
T/C (endpoint: median tumor weight (est.), dose: 50.0 mg/kg/injection, schedule: Q07DX002 (ip), vehicle: saline, higher = larger tumour): 78 % of control
T/C [5]: 1 % of control and 24 % of control and 26 % of control

CC(C)(C)N1CC1CNC(=O)C(=O)NCC1CN1C(C)(C)C (centres undefined)
T/C (endpoint: median tumor weight (est.), dose: 3.12 mg/kg/injection, schedule: Q07DX002 (ip), vehicle: saline with Tween-80, higher = larger tumour): 81 % of control and 106 % of control

CCc1nc(N)nc(N)c1-c1ccc(Cl)c(N=[N+]=[N-])c1
T/C (endpoint: median tumor weight (est.), dose: 25.0 mg/kg/injection, schedule: Q07DX002 (ip), vehicle: distilled water + Tween-80, higher = larger tumour): 82 % of control
T/C (endpoint: median tumor weight (est.), dose: 50.0 mg/kg/injection, schedule: Q07DX002 (ip), vehicle: distilled water + Tween-80, higher = larger tumour): 98 % of control
T/C (endpoint: median tumor weight (est.), dose: 100.0 mg/kg/injection, schedule: Q07DX002 (ip), vehicle: distilled water + Tween-80, higher = larger tumour): 97 % of control
T/C (endpoint: median tumor weight (est.), dose: 200.0 mg/kg/injection, schedule: Q07DX002 (ip), vehicle: distilled water + Tween-80, higher = larger tumour): 88 % of control
T/C (endpoint: median tumor weight (est.), dose: 400.0 mg/kg/injection, schedule: Q07DX002 (ip), vehicle: distilled water + Tween-80, higher = larger tumour): 106 % of control

CCOC(=O)C1(c2ccccc2)C(=O)Oc2ccccc21 (centres undefined)
T/C [1]: 94 % of control
T/C [2]: 112 % of control and 87 % of control
T/C [3]: 61 % of control
T/C [4]: 107 % of control

CC(=O)N(C)C
T/C (endpoint: median tumor weight (est.), dose: 225.0 mg/kg/injection, schedule: Q07DX002 (ip), vehicle: saline, higher = larger tumour): 123 % of control
T/C (endpoint: median tumor weight (est.), dose: 900.0 mg/kg/injection, schedule: Q07DX002 (ip), vehicle: saline, higher = larger tumour): 111 % of control and 100 % of control
T/C (endpoint: median tumor weight (est.), dose: 1800.0 mg/kg/injection, schedule: Q07DX002 (ip), vehicle: saline, higher = larger tumour): 62 % of control and 84 % of control
T/C (endpoint: median tumor weight (est.), dose: 3600.0 mg/kg/injection, schedule: Q07DX002 (ip), vehicle: saline, higher = larger tumour): 46 % of control and 65 % of control

N=C1CCCS1
T/C [5]: 101 % of control
